Series [1] is described as follows: AUC(0 to 24 hrs) in rat at 5 mg/kg, po measured upto 24 hrs by LC-MS/MS analysis. Type of series: ADME, organism-based. Also on record: dose 5 mg/kg, time < 24 hrs, route po. The note with it: in vivo.
Series [2] in a line: Prodrug conversion in cynomolgus monkey assessed as Nucleotide triphosphate metabolite formation in lung at 20 mg/kg, iv measured upto 24 hrs by LC-MS/MS analysis. The format is ADME, organism-based, Macaca fascicularis. Conditions: in vivo.
The nature of series [3]: AUC(0 to 24 hrs) in African green monkey infected with SARS-CoV-2 assessed as prodrug conversion by measuring (2R,3R,4S,5R)-2-(4-aminopyrrolo[2,1-f][1,2,4]triazin-7-yl)-3,4-dihydroxy-5-(hydroxymethyl)tetrahydrofuran-2-carbonitrile at 7.5 mg/kg, iv qd measured after 6 days by LC-MS/MS analysis. Also on record: dose 7.5 mg/kg, time 6 day, route iv. The note with it: in vivo. Type of series: ADME, organism-based, Severe acute respiratory syndrome coronavirus 2.

Series [4] in a line: AUC(0 to 24 hrs) in African green monkey at 20 mg/kg, iv measured upto 24 hrs by LC-MS/MS analysis. Type of series: ADME, organism-based. Also on record: dose 20 mg/kg, time < 24 hrs, route iv. The note with it: chlorocebus sabaeus, in vivo.
Series [5] in a line: in vivo. The note with it: dog, po, 5 mg/kg.
A short description of series [6]: Prodrug conversion in SARS-CoV-2 infected in African green monkey assessed as (2R,3R,4S,5R)-2-(4-aminopyrrolo[2,1-f][1,2,4]triazin-7-yl)-3,4-dihydroxy-5-(hydroxymethyl)tetrahydrofuran-2-carbonitrile mediated log10 reduction of genomic RNA at 10 mg/kg, iv qd administered for day 1 followed by 5 mg/kg administration measured after 6 days by RT-qPCR analysis. The format is ADME, organism-based, Severe acute respiratory syndrome coronavirus 2. Conditions: in vivo, time 6 day.

Series [7] is described as follows: (§1) Cytotoxicity against human PC-3 cells assessed as reduction in cell growth measured after 5 days by CellTiter-Glo assay. Type of series: toxicity, cell-based. Conditions: PC-3 cells, time 5 day. (In general: ATP-based viability assays read luminescence as a measure of living cells.)
In series [8] the test system is CES1c. Put plainly: Stability of compound assessed as human recombinant CES1c-mediated compound hydrolysis by measuring half life at pH 7.4 using oseltamivir as substrate measured upto 120 mins by LC-MS/MS analysis. Type of series: ADME. The note with it: pH 7.4, probe oseltamivir.
Series [9] concerns CES1b. Briefly: Stability of compound assessed as human recombinant CES1b-mediated compound hydrolysis by measuring half life at pH 7.4 using oseltamivir as substrate measured upto 120 mins by LC-MS/MS analysis. The format is ADME. The note with it: pH 7.4, probe oseltamivir.
The nature of series [10]: AUC(0 to 24 hrs) in African green monkey assessed as prodrug conversion by measuring (2R,3R,4S,5R)-2-(4-aminopyrrolo[2,1-f][1,2,4]triazin-7-yl)-3,4-dihydroxy-5-(hydroxymethyl)tetrahydrofuran-2-carbonitrile at 86.5 mg/kg, po measured upto 24 hrs by LC-MS/MS analysis. The format is ADME, organism-based. Also on record: dose 86.5 mg/kg, time < 24 hrs, route po. The note with it: chlorocebus sabaeus, in vivo.

The nature of series [11]: AUC(0 to 24 hrs) in African green monkey assessed as prodrug conversion by measuring (2R,3R,4S,5R)-2-(4-aminopyrrolo[2,1-f][1,2,4]triazin-7-yl)-3,4-dihydroxy-5-(hydroxymethyl)tetrahydrofuran-2-carbonitrile at […], po measured upto 24 hrs by LC-MS/MS analysis. Type of series: ADME, organism-based. Conditions: chlorocebus sabaeus, in vivo.
Series [12] has as its system SARS-CoV-2. Briefly: Antiviral activity against SARS-CoV-2 infected in African green monkey assessed as reduction in viral genomic RNA load in throat swabs at 60 to 120 mg/kg, po qd administered for 2 days starting from 8 hrs post infection by RT-qPCR analysis. The note with it: Severe acute respiratory syndrome coronavirus 2, dose lower 60.0 mg/kg, dose upper […], time 2.0 day. Type of series: functional, organism-based. Background: In qPCR the cycle at which signal appears reflects the starting amount.

The nature of series [13]: Oral bioavailability in African green monkey assessed as prodrug conversion by measuring (2R,3R,4S,5R)-2-(4-aminopyrrolo[2,1-f][1,2,4]triazin-7-yl)-3,4-dihydroxy-5-(hydroxymethyl)tetrahydrofuran-2-carbonitrile at […] measured upto 24 hrs by LC-MS/MS analysis. Type of series: ADME, organism-based. The note with it: chlorocebus sabaeus, in vivo.
The nature of series [14]: Half life in rat assessed as prodrug conversion by measuring (2R,3R,4S,5R)-2-(4-aminopyrrolo[2,1-f][1,2,4]triazin-7-yl)-3,4-dihydroxy-5-(hydroxymethyl)tetrahydrofuran-2-carbonitrile at 6 mg/kg, po measured upto 24 hrs by LC-MS/MS analysis. The format is ADME, organism-based. The note with it: in vivo.
Series [15] in a line: Oral bioavailability in dog assessed as prodrug conversion by measuring (2R,3R,4S,5R)-2-(4-aminopyrrolo[2,1-f][1,2,4]triazin-7-yl)-3,4-dihydroxy-5-(hydroxymethyl)tetrahydrofuran-2-carbonitrile at […] administered in solid form measured upto 24 hrs by LC-MS/MS analysis. The note with it: in vivo. Type of series: ADME, organism-based, Canis lupus familiaris.
Series [16] is described as follows: Oral bioavailability in cynomolgus monkey assessed as prodrug conversion by measuring (2R,3R,4S,5R)-2-(4-aminopyrrolo[2,1-f][1,2,4]triazin-7-yl)-3,4-dihydroxy-5-(hydroxymethyl)tetrahydrofuran-2-carbonitrile at 11.7 mg/kg administered in solid form measured upto 24 hrs by LC-MS/MS analysis. The format is ADME, organism-based, Macaca fascicularis. Conditions: in vivo.

The nature of series [17]: AUC(0 to 24 hrs) in cynomolgus monkey assessed as prodrug conversion by measuring (2R,3R,4S,5R)-2-(4-aminopyrrolo[2,1-f][1,2,4]triazin-7-yl)-3,4-dihydroxy-5-(hydroxymethyl)tetrahydrofuran-2-carbonitrile at 11.7 mg/kg, po measured upto 24 hrs by LC-MS/MS analysis. The format is ADME, organism-based, Macaca fascicularis. Also on record: dose 11.7 mg/kg, time < 24 hrs, route po. Conditions: in vivo.

Series [18] is described as follows: Cmax in African green monkey assessed as prodrug conversion by measuring (2R,3R,4S,5R)-2-(4-aminopyrrolo[2,1-f][1,2,4]triazin-7-yl)-3,4-dihydroxy-5-(hydroxymethyl)tetrahydrofuran-2-carbonitrile at 86.5 mg/kg, po measured upto 24 hrs by LC-MS/MS analysis. Type of series: ADME, organism-based. Also on record: dose 86.5 mg/kg, time < 24 hrs, route po. The note with it: chlorocebus sabaeus, in vivo.

For series [19], the system named is SARS-CoV-2. Briefly: Antiviral activity against SARS-CoV-2 infected in African green monkey assessed as reduction in viral genomic RNA load in throat swabs at 60 to 120 mg/kg, po qd administered for 6 days starting from 8 hrs post infection by RT-qPCR analysis. The format is functional, organism-based. Conditions: Severe acute respiratory syndrome coronavirus 2, dose lower 60.0 mg/kg, dose upper […], time 6.0 day.

A short description of series [20]: Prodrug conversion in African green monkey assessed as Nucleotide triphosphate metabolite formation in lung at 60 mg/kg, po measured upto 24 hrs by LC-MS/MS analysis. The format is ADME, organism-based. The note with it: chlorocebus aethiops, in vivo.
The nature of series [21]: Cmax in rat assessed as prodrug conversion by measuring (2R,3R,4S,5R)-2-(4-aminopyrrolo[2,1-f][1,2,4]triazin-7-yl)-3,4-dihydroxy-5-(hydroxymethyl)tetrahydrofuran-2-carbonitrile at 6 mg/kg, po measured upto 24 hrs by LC-MS/MS analysis. Type of series: ADME, organism-based. Also on record: dose 6 mg/kg, time < 24 hrs, route po. The note with it: in vivo.
A short description of series [22]: Half life in cynomolgus monkey assessed as prodrug conversion by measuring (2R,3R,4S,5R)-2-(4-aminopyrrolo[2,1-f][1,2,4]triazin-7-yl)-3,4-dihydroxy-5-(hydroxymethyl)tetrahydrofuran-2-carbonitrile at 11.7 mg/kg, po measured upto 24 hrs by LC-MS/MS analysis. The format is ADME, organism-based, Macaca fascicularis. The note with it: in vivo.
Series [23] concerns SARS-CoV-2. Briefly: Antiviral activity against SARS-CoV-2 infected in African green monkey assessed as reduction in viral titer in nasal swabs at 60 to 120 mg/kg, po qd administered for 4 days starting from 8 hrs post infection by PFA assay. Conditions: Severe acute respiratory syndrome coronavirus 2, dose lower 60.0 mg/kg, dose upper […], time 4.0 day. Type of series: functional, organism-based.

For series [24], the system named is PC-3. The description is as §1. The format is toxicity, cell-based. Conditions: pc-3, 120 h, time 5 day.
A short description of series [25]: Aqueous stability of the compound assessed as compound remaining at pH 7 measured at 24 hrs by UPLC analysis. The format is physicochemical. Conditions: aqueous solution, read-out: Stability.

Each structure is given as a SMILES string. The source made the active and inactive calls. The rule behind the calls is not given here.

Usually AUC stands for the area under the concentration-time curve, a measure of exposure. Broadly, the bioavailability is the share of a dose that reaches the circulation, judged against a reference dose that is usually intravenous. In general, CC50 refers to the concentration that lowers cell viability or growth by half. A word on the half-life: it is how long it takes for the measured level to halve. As usually defined, the Cmax is the highest concentration seen after dosing.

Turning to `N#C[C@@]1(c2ccc3c(N)ncnn23)O[C@H](CO)[C@@H](O)[C@H]1O` [GS-441524], the values for the AUC in series [1], in [3] and in series [4] were 3.97 µM·h, ~ 55 uM.hr and 147 µM·h, respectively. Further, the Drug metabolism in series [2] was 0.41 nmol/g. In [5], the bioavailability at 24 h was 89%.

As for `CCC(CC)COC(=O)[C@H](C)N[P@](=O)(OC[C@H]1O[C@@](C#N)(c2ccc3c(N)ncnn23)[C@H](O)[C@@H]1O)Oc1ccccc1`, the “log(activity)” value in series [6] was -1.38. The CC50 at 120 h in [7] stood at 1400 nM.

On to `CC(C)C(=O)OC[C@H]1O[C@@](C#N)(c2ccc3c(N)ncnn23)[C@H](O)[C@@H]1O` [OBELDESIVIR], for which the half-life in series [8] is 4.3 min; in [9], 4 min. The AUC in series [10] was determined as 136 µM·h; in series [11], 26.6 µM·h; in series [17] it was 21.6 µM·h. Moreover, the outcome in series [12], in series [19] and in series [23] was Active. Further, the F in series [13] is listed as 31%; in series [15], 67%; in [16], 18%. For the same compound, the figures for the t1/2 in [14] and in [22] were 2.02 h and 2.62 h, respectively. The Cmax in series [18] came out at 19.6 µM; in series [21] it was 2100 nM. Moreover, the Drug metabolism in series [20] turned out to be 0.31 nmol/g. Besides, in series [24], the CC50 is over 100 µM. Moreover, the remaining at 24 h in series [25] was at least 96%.
